Experimental data from ChEMBL document CHEMBL1201862, “PubChem BioAssay data set” (2004).
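These data come from cells grown in 96-well plates and exposed to compound for 48 hours at five concentrations. GI50 marks 50% less growth.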 Calls of active or inactive are those of the source. Cut-off read from the data, not from the text of the source: active = GI50 up to about 1.1 µM and inactive = higher.

Key:
Assay in all cases: NCI-60 cell line screen, 48 h
COLO 205 = tested on: COLO 205
DMS-273 = tested on: DMS-273
HOP-62 = tested on: HOP-62
KM12 = tested on: KM12
LOX IMVI = tested on: LOX IMVI
M14 = tested on: M14
MOLT-4 = tested on: MOLT-4
Malme-3M = tested on: Malme-3M
NCI-H23 = tested on: NCI-H23
OVCAR-8 = tested on: OVCAR-8
RPMI-8226 = tested on: RPMI-8226
SF-268 = tested on: SF-268
SF-295 = tested on: SF-295
SK-MEL-2 = tested on: SK-MEL-2
SNB-75 = tested on: SNB-75
U-251 = tested on: U-251
UACC-62 = tested on: UACC-62
PC-3 = tested on: PC-3
T47D = tested on: T47D
NCI/ADR-RES = tested on: NCI/ADR-RES

## O=C1c2c(n(Cc3ccccc3)c(=O)n2Cc2ccccc2)C(=O)N1Cc1ccccc1
COLO 205
  GI50: > 100 µM (inactive)
DMS-273
  GI50: 31.4 µM (inactive)
HOP-62
  GI50: > 100 µM (inactive)
KM12
  GI50: 55.5 µM (inactive)
LOX IMVI
  GI50: 32.4 µM (inactive)
M14
  GI50: > 100 µM (inactive)
MOLT-4
  GI50: 54.6 µM (inactive)
Malme-3M
  GI50: > 100 µM (inactive)
NCI-H23
  GI50: 38.6 µM (inactive)
OVCAR-8
  GI50: > 100 µM (inactive)
RPMI-8226
  GI50: 22.8 µM (inactive)
SF-268
  GI50: 64.1 µM (inactive)
SF-295
  GI50: 72.3 µM (inactive)
SK-MEL-2
  GI50: 46.3 µM (inactive)
SNB-75
  GI50: 64.7 µM (inactive)
U-251
  GI50: 50.4 µM (inactive)
UACC-62
  GI50: 41.4 µM (inactive)

## COC(=O)c1c(CC(=O)OC(C)C)cc2n(c1=O)Cc1c-2nc2ccccc2c1OC
COLO 205
  GI50: > 100 µM (inactive)
DMS-273
  GI50: > 100 µM (inactive)
HOP-62
  GI50: > 100 µM (inactive)
LOX IMVI
  GI50: > 100 µM (inactive)
M14
  GI50: > 100 µM (inactive)
MOLT-4
  GI50: > 100 µM (inactive)
Malme-3M
  GI50: > 100 µM (inactive)
NCI-H23
  GI50: > 100 µM (inactive)
OVCAR-8
  GI50: > 100 µM (inactive)
RPMI-8226
  GI50: 59 µM (inactive)
SF-268
  GI50: > 100 µM (inactive)
SF-295
  GI50: > 100 µM (inactive)
SK-MEL-2
  GI50: > 100 µM (inactive)
SNB-75
  GI50: 27 µM (inactive)
U-251
  GI50: > 100 µM (inactive)
UACC-62
  GI50: > 100 µM (inactive)

## Cn1c(=O)oc2cc(C3CCC(=O)N3Cc3ccc(Cl)cc3)ccc21 (stereo unspecified)
COLO 205
  GI50: > 100 µM (inactive)
DMS-273
  GI50: > 100 µM (inactive)
HOP-62
  GI50: > 100 µM (inactive)
KM12
  GI50: > 100 µM (inactive)
LOX IMVI
  GI50: > 100 µM (inactive)
M14
  GI50: > 100 µM (inactive)
MOLT-4
  GI50: > 100 µM (inactive)
Malme-3M
  GI50: > 100 µM (inactive)
NCI-H23
  GI50: > 100 µM (inactive)
OVCAR-8
  GI50: > 100 µM (inactive)
RPMI-8226
  GI50: > 100 µM (inactive)
SF-268
  GI50: > 100 µM (inactive)
SF-295
  GI50: > 100 µM (inactive)
SK-MEL-2
  GI50: > 100 µM (inactive)
SNB-75
  GI50: 47.9 µM (inactive)
U-251
  GI50: > 100 µM (inactive)
UACC-62
  GI50: > 100 µM (inactive)

## N=S(c1ccccc1[N+](=O)[O-])c1ccccc1[N+](=O)[O-]
COLO 205
  GI50: 1.3 µM (inactive)
DMS-273
  GI50: 2.16 µM (inactive)
HOP-62
  GI50: 4.65 µM (inactive)
KM12
  GI50: 3.34 µM (inactive)
LOX IMVI
  GI50: 0.76 µM (active)
M14
  GI50: 2.69 µM (inactive)
MOLT-4
  GI50: 1.8 µM (inactive)
Malme-3M
  GI50: 2.72 µM (inactive)
NCI-H23
  GI50: 3.52 µM (inactive)
OVCAR-8
  GI50: 2.14 µM (inactive)
PC-3
  GI50: 1.46 µM (inactive)
RPMI-8226
  GI50: 1.14 µM (inactive)
SF-268
  GI50: 4.73 µM (inactive)
SK-MEL-2
  GI50: 3.9 µM (inactive)
SNB-75
  GI50: 7.94 µM (inactive)
T47D
  GI50: 0.311 µM (active)
UACC-62
  GI50: 3.45 µM (inactive)

## COc1ccccc1NC(=O)C1=C(C)NC(C)=C(C(=O)Nc2ccccc2OC)C1c1cccc2ccccc12
COLO 205
  GI50: > 100 µM (inactive)
DMS-273
  GI50: 80.9 µM (inactive)
KM12
  GI50: 37.8 µM (inactive)
LOX IMVI
  GI50: > 100 µM (inactive)
M14
  GI50: > 100 µM (inactive)
MOLT-4
  GI50: 10.6 µM (inactive)
Malme-3M
  GI50: 38.6 µM (inactive)
NCI-H23
  GI50: 21.7 µM (inactive)
OVCAR-8
  GI50: > 100 µM (inactive)
RPMI-8226
  GI50: 9.29 µM (inactive)
SF-268
  GI50: 29.4 µM (inactive)
SF-295
  GI50: 90.6 µM (inactive)
SK-MEL-2
  GI50: > 100 µM (inactive)
SNB-75
  GI50: 14.3 µM (inactive)
U-251
  GI50: > 100 µM (inactive)
UACC-62
  GI50: > 100 µM (inactive)

## CCCCCCCCCCCCCCCC(=O)OCC1OC(OC)C(NC(=O)N(CCCl)N=O)C(O)C1O (stereo unspecified)
COLO 205
  GI50: 19.2 µM (inactive)
DMS-273
  GI50: 10.2 µM (inactive)
HOP-62
  GI50: 8.04 µM (inactive)
KM12
  GI50: 19 µM (inactive)
LOX IMVI
  GI50: 2.36 µM (inactive)
M14
  GI50: 16.8 µM (inactive)
MOLT-4
  GI50: 6.32 µM (inactive)
Malme-3M
  GI50: 20.9 µM (inactive)
NCI-H23
  GI50: 11.5 µM (inactive)
NCI/ADR-RES
  GI50: 13.9 µM (inactive)
OVCAR-8
  GI50: 15.5 µM (inactive)
PC-3
  GI50: 15.7 µM (inactive)
RPMI-8226
  GI50: 21.3 µM (inactive)
SF-268
  GI50: 3.34 µM (inactive)
SF-295
  GI50: 4.48 µM (inactive)
SK-MEL-2
  GI50: 17.7 µM (inactive)
SNB-75
  GI50: 7 µM (inactive)
U-251
  GI50: 8.38 µM (inactive)
UACC-62
  GI50: 2.02 µM (inactive)

## O=C(CCCCCCCCCCc1ccccc1)c1c(O)cccc1O
COLO 205
  GI50: 23.8 µM (inactive)
DMS-273
  GI50: 18.2 µM (inactive)
HOP-62
  GI50: 20.8 µM (inactive)
KM12
  GI50: 18.4 µM (inactive)
LOX IMVI
  GI50: 27.2 µM (inactive)
M14
  GI50: 20 µM (inactive)
MOLT-4
  GI50: 23.7 µM (inactive)
Malme-3M
  GI50: 17.9 µM (inactive)
NCI-H23
  GI50: 18.9 µM (inactive)
OVCAR-8
  GI50: 20.7 µM (inactive)
RPMI-8226
  GI50: 34.7 µM (inactive)
SF-268
  GI50: 23.8 µM (inactive)
SF-295
  GI50: 21.3 µM (inactive)
SK-MEL-2
  GI50: 15.8 µM (inactive)
SNB-75
  GI50: 29 µM (inactive)
U-251
  GI50: 21.2 µM (inactive)
UACC-62
  GI50: 20.7 µM (inactive)

## COc1ccc2nc3cc(Cl)ccc3c(Sc3ccc([N+](=O)[O-])cc3)c2c1
COLO 205
  GI50: > 10 µM (inactive)
DMS-273
  GI50: > 10 µM (inactive)
HOP-62
  GI50: > 10 µM (inactive)
KM12
  GI50: > 10 µM (inactive)
LOX IMVI
  GI50: > 10 µM (inactive)
M14
  GI50: > 10 µM (inactive)
MOLT-4
  GI50: > 10 µM (inactive)
Malme-3M
  GI50: > 10 µM (inactive)
NCI-H23
  GI50: > 10 µM (inactive)
OVCAR-8
  GI50: > 10 µM (inactive)
RPMI-8226
  GI50: > 100 µM (inactive)
SF-268
  GI50: > 10 µM (inactive)
SF-295
  GI50: > 10 µM (inactive)
SK-MEL-2
  GI50: > 10 µM (inactive)
SNB-75
  GI50: 34.1 µM (inactive)
U-251
  GI50: > 10 µM (inactive)
UACC-62
  GI50: > 10 µM (inactive)
